# Test results reported in patent publication US9737510B2, “Indazole compounds and a process for the preparation thereof” (Council of Scientific & Industrial Research, priority 2013, dated 2017).
# Columns and labels:
# MIN6 cells = test: Insulinotropic activity: insulin secretion from MIN6 cells (ELISA based assay); format: cell-based, mouse; conditions: for Insulin Secretion: standard error in bracket
# Experimental: Insulinotropic activity of the NDS100178 and NDS100179 was measured by a well-optimized ELISA based Assay (Shantani Protocol #5205) described below.
# Materials • MIN6Cell (source: National Center for Cell Sciences, Pune) • Mouse Insulin ELISA kit (Mercodia, 10-1247-01) • Plate Shaker (MixMatefromEppendorf) • HEPES Balanced Krebs-Ringer bicarbonate buffer (components as follows)
# Method • i. Seed proliferating culture of MIN-6 cells into a 6 well plate with almost half the confluency two days before the experiment. • ii. One the day of Insulin induction experiment, the cells should become almost confluent and are in good condition. • iii. On the day of experiment, first prepare 1×KRB-HEPES buffer with 0.1% BSA (for rinse) and without BSA (for equilibration and insulin induction) as described in the materials. • iv. Prepare equilibration buffer: 1×KRB-HEPES buffer without BSA containing 3.3 mM glucose (to bring down the glucose level of all cells to the same level). For example, add 66 ul 1 M glucose stock solution to 20 ml KRB-HEPES buffer without BSA. • v. Prepare the stimulating buffer (insulin induction): 1×KRB-HEPES buffer without BSA containing the defined glucose level (in most cases, it will be 16.7 mM glucose) and the desired concentration of molecule. • vi. Pre warm all the buffers to 37° C. in the water bath (at 15 minutes). • vii. Remove media from all wells, rinse each well twice with 2 ml KRB-HEPES buffer containing 0.1% BSA. • viii. Add 2 ml of equilibration buffer in each well and incubate at 37° C. for half an hour. • ix. After the incubation add 2 ml of stimulating buffer in respective wells (properly labelled) and incubate 37° C. for 1 hour. • x. In the meanwhile, turn on the refrigerated centrifuge and set the temperature to 4° C. Take out enzyme conjugate, diluent buffer, Calibrator 0 and stripes needed (for example, two stripes for 8 samples to be run in duplicate) from Mercodia ELISA kit box (store at 4° C.) and warm up them to RT. • xi. […] Centrifuge the tubes at 600 g for 5 min. • xiii. Take out 500 ul in fresh properly labelled precooled tubes. • xiv. Now dilute the samples 1:30 in calibrator 0 i.e. add 3 ul of each sample to 87 ul of Calibrator 0 in 8 different properly labelled 0.5 ml tubes. Mix them well. • xv. Prepare 1× enzyme conjugate buffer, i.e. mix 180 ul enzyme (11×) with 1800 ul diluent buffer for ELISA of two stripes. • xvi. Add 10 ul of each sample (diluted, in duplicate) in the two adjacent wells. Be careful not to touch the bottom. • xvii. Carefully add 100 ul of Enzyme Conjugate buffer (1×) to each well and incubate on a plate shaker (eppendorf MixMate) at 800 rpm for 2 hours at 25° C. • xviii. 45 min before the incubation is over take out wash buffer, substrate TMB and Stop solution. Keep them at RT. • xix. 5 min before the incubation is over prepare 1× wash buffer (21×), i.e. 40 ml distilled water+2 ml (21×) wash buffer in a reservoir. • xx. After the incubation is over, wash each well 7 times with 350 ul wash buffer. Use a multichannel (175 ul). • xxi. After the washing add 200 uL substrate TMB solution in each well. Maintain a proper pace. • xxii. Allow to incubate for 15 min. Set the program on the plate reader, to take absorbance read at 450 nm. Add a 5 sec shake step to allow proper mixing. • xxiii. After incubation immediately add 50 ul Stop solution in each well at same pace and take absorbance read at 450 nm.
# Assay conditions were kept same in all the assays. The difference in absorption-value for control experiment (no treatment with molecule) over different days is attributed to cell culture conditions. Other varying conditions are specified in the respective graphs.
# [Note: If not mentioned specifically, HG=High Glucose (16.7 mM), LG=Low Glucose (3.3 mM)]
# C57BL/6J mice [1] = test: Oral glucose tolerance test, glucose reduction in non-diabetic C57BL/6J mice; format: in vivo; conditions: fasted male C57BL/6J mice, oral dose with 3 g/kg glucose, 0-120 minutes
# Experimental: 12-13 weeks male C57BL/6J mice were fasted overnight. In the morning animals were orally dosed with different concentrations of NDS100179 or control vehicle along with 3 g/kg of glucose. Blood glucose was measured just before the dose and then 30, 60 90 and 120 minutes after the compound dose.
# C57BL/6J mice [2] = test: Insulin increase / GSIS in C57BL/6J mice; format: in vivo
# Experimental: Insulin at 0 and 15 minutes time points was also measured in the studies conducted above where 12-13 weeks male C57BL/6J mice were fasted overnight and in the morning orally dosed with different concentrations of NDS100179 or control vehicle along with 3 g/kg of glucose.
# (§1) NDS100179 induced insulin measurements at low and high glucose condition were carried out in Human Islets, Mice and MIN6 cells.
# Human Islets = test: GSIS enhancement in human islets; format: cell-based; conditions: low and high glucose
# Experimental: as §1
# db/db mice = test: 30 day oral treatment of db/db mice (fasted glucose, OGTT, beta-cell function, triglyceride, body weight); format: in vivo
# Experimental: db/db or leptin null mice are well accepted model of diabetes. 7 week old db/db mice were dosed orally with 10 mg/kg, 30 mg/kg of NDS100179 and vehicle alone for 30 days. Fasted plasma glucose levels in the animals were measured before the start of the study, at day 15 and day 30.
# 7 week db/db mice were dosed orally with 10 mg/kg, 30 mg/kg of NDS100179 and vehicle alone for 30 days. Beta-cell functionality was assessed using HOMA-beta % calculations at the end of 30 days.
# 7 week db/db mice were dosed orally with 10 mg/kg, 30 mg/kg of NDS100179 and vehicle alone for 30 days. Triglyceride levels were measured at the end of 30 days.
# 7 week db/db mice were dosed orally with 10 mg/kg, 30 mg/kg of NDS100179 and vehicle alone for 30 days. Animal body weight was measured every third day.
# Pharmacokinetics in mice = format: in vivo
# Text: Based on the pharmacokinetics studies performed in Mice NDS100179 is 100% orally bioavailable compound (FIG. 9).
# Kinetic solubility = format: physicochemical
# CYP3A4 = CYP3A4 (Homo sapiens, UniProt P08684); test: CYP3A4 inhibition; format: in vitro ADME
# [3] = Metabolic study and intrinsic clearance in MLM; format: in vitro ADME
# Metabolic study in HLM = format: in vitro ADME
# HepG2 cells = test: Glucose uptake (2-NBDG) in insulin resistant HepG2 cells; format: cell-based; conditions: 24 hours with drug, 2-NBDG 15 min
# Experimental: The assay was performed after making the HepG2 cells insulin resistant by culturing them in high glucose condition with respective drugs for 24 hours. The assay was performed after 24 hours by allowing the cells to starve for 2 hrs in serum free media (containing respective drug) followed by 30 min incubation in KRB buffer (with respective drugs) and lastly incubating with 2-NBDG (fluorescent glucose analgoue) for 15 min. The cells were thoroughly washed and lysed with 1% triton-X. The fluorescence reading was immediately taken at Ex:465 and […].
# [4] = oral 10 mg/kg, 30 mg/kg, end of 30 days
# CYP3A4, sequence (P08684 whole entry): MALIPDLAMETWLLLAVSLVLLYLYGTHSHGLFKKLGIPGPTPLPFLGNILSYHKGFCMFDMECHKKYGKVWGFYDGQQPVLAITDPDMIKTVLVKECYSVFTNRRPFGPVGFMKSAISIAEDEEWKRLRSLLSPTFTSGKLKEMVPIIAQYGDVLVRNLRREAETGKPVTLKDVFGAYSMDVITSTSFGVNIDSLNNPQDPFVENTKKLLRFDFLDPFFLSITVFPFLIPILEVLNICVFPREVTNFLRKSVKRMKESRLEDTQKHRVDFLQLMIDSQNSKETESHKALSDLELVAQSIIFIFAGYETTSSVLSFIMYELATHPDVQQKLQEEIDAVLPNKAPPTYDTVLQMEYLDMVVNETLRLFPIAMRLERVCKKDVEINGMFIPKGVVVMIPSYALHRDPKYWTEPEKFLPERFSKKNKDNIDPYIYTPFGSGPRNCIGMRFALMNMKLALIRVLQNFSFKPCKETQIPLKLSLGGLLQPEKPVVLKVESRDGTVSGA
substance,measurement,setting,value
"5-Chloro-3-(4,5-dihydro-1H-imidazol-2-yl)-1-methyl-3a,7a-dihydro-1H-indazole [NDS100179]",insulin secretion from MIN6 cells in high glucose conditions,"MIN6 cells; 33 uM, 1 hour, high glucose (16.7 mM), three different days",significant increase in the insulin secretion
same,insulin secretion over control,"MIN6 cells; MIN6 cells, 10 nM",not found to be statistically significant
same,insulin secretion over control,"MIN6 cells; MIN6 cells, 50 nM",active insulinotrope
same,insulin secretion over control,"MIN6 cells; MIN6 cells, 100 nM",active insulinotrope
same,Insulin Secretion,"MIN6 cells; MIN6 cells, compound 0.1 μM",5.55 (1.0) ng/ml
same,Insulin Secretion,"MIN6 cells; MIN6 cells, compound 1.0 μM",10.27 (0.6) ng/ml
same,Insulin Secretion,"MIN6 cells; MIN6 cells, compound 10.0 μM",15.45 (1.2) ng/ml
same,glucose dependence of insulinotropic activity,"MIN6 cells; MIN6 cells, high glucose vs lower glucose conditions",glucose dependent
same,GSIS enhancement,"MIN6 cells; MIN6 cells, low and high glucose",enhance insulin secretion only at high glucose concentration
same,blood glucose (oral glucose tolerance test),C57BL/6J mice [1],dose dependently reduce the blood glucose
same,GSIS enhancement,"C57BL/6J mice [2]; Mice, low and high glucose",enhance insulin secretion only at high glucose concentration
same,insulin secretion in mice,"C57BL/6J mice [2]; fasted male C57BL/6J mice, oral dose with 3 g/kg glucose, 0 and 15 minutes",blood plasma concentration glucose dependent
same,GSIS enhancement,Human Islets,enhance insulin secretion only at high glucose concentration
same,glucose tolerance (OGTT),db/db mice; at the end of 30 days of oral treatment,significant improvement in glucose tolerance
same,fasted plasma glucose (basal glucose level),"db/db mice; oral 10 mg/kg and 30 mg/kg for 30 days, day 0, 15, 30",significant control in rise of basal glucose level
same,body weight,"db/db mice; oral 10 mg/kg, 30 mg/kg for 30 days, measured every third day",No significant change in body weight
same,beta-cell function (HOMA-beta %),db/db mice; [4],significant improvements in beta-cell functions
same,triglyceride levels,db/db mice; [4],significant reduction in triglyceride levels
same,rise in fasted blood glucose levels,db/db mice; oral 30 mg/kg for 30 days,no statistically significant rise
same,AUC(0-t),Pharmacokinetics in mice,837.113 ng·h/mL
same,AUC(inf),Pharmacokinetics in mice,854.231 ng·h/mL
same,AUC(inf)/AUC(0-t) %,Pharmacokinetics in mice,102.049%
same,Cmax,Pharmacokinetics in mice,631.1 ng/mL
same,Tmax,Pharmacokinetics in mice,15 min
same,oral bioavailability,Pharmacokinetics in mice,100%
same,t½,Pharmacokinetics in mice,102 min
same,solubility kinetic,Kinetic solubility,205.27 µM
same,CYP3A4 Inhibition,CYP3A4,No inhibition
same,Intrinsic Clearnace MLM,[3],63.7 μl/min/mg of protein
same,Metabolic Study MLM Mean % PCR*,[3],39.25%
same,Metabolic Study HLM Mean % PCR*,Metabolic study in HLM,80.11%
same,glucose uptake in HepG2 cells,HepG2 cells,increase glucose uptake
